Assays:
[1] = test system: cat flea, Ctenocephalides felis; test: Duration of control in dogs treated with ectoparasiticides at up to 3x the conventional dose against the cat flea (Example 6); type: in vivo
Text: In this evaluation, 32 mixed breed male or female dogs, aged 1 to 10 years, were used. Dogs were not treated with an ectoparasiticide for 60 days prior to the study. No drugs, baths, shampoos or pesticides were given to the dogs during the preconditioning phase or during the course of the study other than what is described in the protocol. At least 36 dogs were preconditioned for 14 days. All dogs were bathed with noninsecticidal shampoo (Day −12 to −8). On Day −7, each dog was infested with 100 unfed cat fleas, Ctenocephalides felis. On Day −5, each dog was thoroughly examined and then combed to remove and count fleas. Dogs were selected for inclusion in the study on the basis of flea retention and/or behavior. The 32 dogs with the highest flea counts were selected for the study, except for exclusion of dogs deemed not easily handled. The dogs were blocked by flea number retained, and randomly allocated within blocks into 8 groups of 4 dogs.
Applications for Groups B-H were administered using disposable syringes. Each dog received a spot of the appropriate formulation to the skin (by syringe without a needle) at the dorsal midline between the shoulder blades. Group A was left untreated. […] Observations for post-treatment adverse reactions, skin irritation and behavior of test formulations were made at four hours following administration of treatments. Thereafter, dogs were observed once daily on Days 1-14 for formulation acceptability, adverse reactions, or signs of skin irritation following treatment. Daily observations of the physical condition of the animals were made throughout the trial.
Dogs were infested with 100 adult cat fleas, Ctenocephalides felis, on Day 14 and then examined for live fleas on Day 16. The dogs were re-infested/examined on Days 28/30, 56/58, 70/72, 84/86 and then infested and examined again at 2 week intervals until efficacy waned. At each infestation, 100 unfed adult fleas were applied along the lateral midline of each dog. The negative control group (Group A) was infested before the test compound groups. Fleas were recovered by examining and combing the groups in the same order. Combs were washed and rinsed with alcohol between dogs. Plastic gloves and aprons were changed between treatment groups.
(§1) Flea counts were transformed by log (count +1), and geometric means were used to calculate percent efficacy for the treatments using (Yc−Yt)/Yc*100, where Yc and Yt equal mean counts for control and treated groups, respectively.

[2] = test system: cat flea, Ctenocephalides felis; test: Duration of efficacy of high doses of ectoparasiticides against the cat flea in cats (Example 5); type: in vivo
Text: In this evaluation, 32 domestic shorthair cats of mixed sex, aged at least 6 months, were used to test the high doses of ectoparasiticides disclosed herein. Cats were free of ectoparasiticide treatment for 60 days prior to administration of the experimental treatments. No drugs, baths, shampoos, or pesticides were given to the cats during the preconditioning phase or during the course of the study other than what is described in the protocol. At least 36 cats were preconditioned for 7 days. On day −7, each cat was infested with 100 unfed cat fleas, Ctenocephalides felis. On Day −5, each cat was thoroughly examined and combed to remove and count fleas. 32 cats were ranked in descending order by flea count. From the ranking, the cats were divided into four blocks of eight cats each. The eight cats within each of the four blocks were randomly allocated to treatment groups (A-H).
Applications for groups B-H were administered using a disposable syringe. The dose was applied as a single spot on the dorsal neck at the base of the skull. Group A was left untreated. […] On Days 1 through 14 following administration of the treatments, cats were observed daily for reactions and formulation acceptability. Thereafter, cats were observed once daily for the remainder of the study. Cats were infested with 100 adult cat fleas on Day 14 then examined for fleas on Day 16. The cats were re-infested and examined again on Days 28 and 30, on Days 56 and 58 then bi-weekly until efficacy waned. At each infestation, 100 unfed adult fleas were applied along the dorsal rump of each cat. The negative control group (Group A) was infested before the test compound groups. Fleas were recovered by examining and combing the groups in the same order. Combs were washed and rinsed with alcohol between cats, and latex gloves were changed between treatment groups.
as §1

[3] = 7.5 mg fipronil/kg spot-on, Day 16
[4] = 7.5 mg fipronil/kg spot-on, Day 30
[5] = 7.5 mg fipronil/kg spot-on, Day 58
[6] = 7.5 mg fipronil/kg spot-on, Day 72
[7] = 7.5 mg fipronil/kg spot-on, Day 86
[8] = 7.5 mg fipronil/kg spot-on, Day 100
[9] = 22.5 mg fipronil/kg spot-on, Day 16
[10] = 22.5 mg fipronil/kg spot-on, Day 30
[11] = 22.5 mg fipronil/kg spot-on, Day 58
[12] = 22.5 mg fipronil/kg spot-on, Day 72
[13] = 22.5 mg fipronil/kg spot-on, Day 86
[14] = 22.5 mg fipronil/kg spot-on, Day 100
[15] = 7 mg fipronil/kg (1×) spot-on, Day 16
[16] = 7 mg fipronil/kg (1×) spot-on, Day 30
[17] = 7 mg fipronil/kg (1×) spot-on, Day 58
[18] = 7 mg fipronil/kg (1×) spot-on, Day 72
[19] = 7 mg fipronil/kg (1×) spot-on, Day 86
[20] = 7 mg fipronil/kg (1×) spot-on, Day 100
[21] = 7 mg fipronil/kg (1×) spot-on, Day 114
[22] = 21 mg fipronil/kg (3×) spot-on, Day 16
[23] = 21 mg fipronil/kg (3×) spot-on, Day 30
[24] = 21 mg fipronil/kg (3×) spot-on, Day 58
[25] = 21 mg fipronil/kg (3×) spot-on, Day 72
[26] = 21 mg fipronil/kg (3×) spot-on, Day 86
[27] = 21 mg fipronil/kg (3×) spot-on, Day 100
[28] = 10 mg imidacloprid/kg spot-on, Day 16
[29] = 10 mg imidacloprid/kg spot-on, Day 30
[30] = 10 mg imidacloprid/kg spot-on, Day 58
[31] = 10 mg imidacloprid/kg spot-on, Day 72
[32] = 10 mg imidacloprid/kg spot-on, Day 86
[33] = 10 mg imidacloprid/kg spot-on, Day 100
[34] = 30 mg imidacloprid/kg spot-on, Day 16
[35] = 30 mg imidacloprid/kg spot-on, Day 30
[36] = 30 mg imidacloprid/kg spot-on, Day 58
[37] = 30 mg imidacloprid/kg spot-on, Day 72
[38] = 30 mg imidacloprid/kg spot-on, Day 86
[39] = 30 mg imidacloprid/kg spot-on, Day 100
[40] = 10 mg imidacloprid/kg (1×) spot-on, Day 16
[41] = 10 mg imidacloprid/kg (1×) spot-on, Day 30
[42] = 10 mg imidacloprid/kg (1×) spot-on, Day 58
[43] = 10 mg imidacloprid/kg (1×) spot-on, Day 72
[44] = 10 mg imidacloprid/kg (1×) spot-on, Day 86
[45] = 30 mg imidacloprid/kg (3×) spot-on, Day 16
[46] = 30 mg imidacloprid/kg (3×) spot-on, Day 30
[47] = 30 mg imidacloprid/kg (3×) spot-on, Day 58
[48] = 30 mg imidacloprid/kg (3×) spot-on, Day 72
[49] = 30 mg imidacloprid/kg (3×) spot-on, Day 86

SMILES: N#Cc1ccc(CC(=NNC(=O)Nc2ccc(OC(F)(F)F)cc2)c2cccc(C(F)(F)F)c2)cc1 (mixture of isomers) [metaflumizone, (E,Z)-2-[2-(4-cyanophenyl)-1-[3-(trifluoromethyl)phenyl]ethylidene]-N-[4-(tri-fluoromethoxy)phenyl]hydrazinecarboxamide]
- % Efficacy ([1]; metaflumizone 60 mg/kg (3×) spot-on, Day 128): 96.5%

SMILES: N#Cc1nn(-c2c(Cl)cc(C(F)(F)F)cc2Cl)c(N)c1[S+]([O-])C(F)(F)F (stereo not shown) [fipronil]
- % Efficacy [2, 3]: 97.7%
- Flea comb count, G.M. [2, 3]: 1.2
- % Efficacy [2, 4]: 96.4%
- Flea comb count, G.M. [2, 4]: 2.3
- % Efficacy [2, 5]: 78.8%
- Flea comb count, G.M. [2, 5]: 11.5
- % Efficacy [2, 6]: 81.1%
- Flea comb count, G.M. [2, 6]: 12.5
- % Efficacy [2, 7]: 66.9%
- Flea comb count, G.M. [2, 7]: 19.2
- % Efficacy [2, 8]: 14.3%
- Flea comb count, G.M. [2, 8]: 50.6
- % Efficacy [2, 9]: 97.8%
- Flea comb count, G.M. [2, 9]: 1.2
- % Efficacy [2, 10]: 100.0%
- Flea comb count, G.M. [2, 10]: 0.0
- % Efficacy [2, 11]: 93.8%
- Flea comb count, G.M. [2, 11]: 3.4
- % Efficacy [2, 12]: 94.7%
- Flea comb count, G.M. [2, 12]: 3.5
- % Efficacy [2, 13]: 64.9%
- Flea comb count, G.M. [2, 13]: 20.3
- % Efficacy [2, 14]: 31.5%
- Flea comb count, G.M. [2, 14]: 40.4
- % Efficacy [1, 15]: 99.8%
- Flea Counts/Dog/Day (Geometric Means) [1, 15]: 0.2
- % Efficacy [1, 16]: 99.8%
- Flea Counts/Dog/Day (Geometric Means) [1, 16]: 0.2
- % Efficacy [1, 17]: 100.0%
- Flea Counts/Dog/Day (Geometric Means) [1, 17]: 0.0
- % Efficacy [1, 18]: 96.9%
- Flea Counts/Dog/Day (Geometric Means) [1, 18]: 2.4
- % Efficacy [1, 19]: 97.4%
- Flea Counts/Dog/Day (Geometric Means) [1, 19]: 2.3
- % Efficacy [1, 20]: 94.1%
- Flea Counts/Dog/Day (Geometric Means) [1, 20]: 4.3
- % Efficacy [1, 21]: 84.7%
- Flea Counts/Dog/Day (Geometric Means) [1, 21]: 10.2
- % Efficacy [1, 22]: 100.0%
- Flea Counts/Dog/Day (Geometric Means) [1, 22]: 0.0
- % Efficacy [1, 23]: 100.0%
- Flea Counts/Dog/Day (Geometric Means) [1, 23]: 0.0
- % Efficacy [1, 24]: 90.7%
- Flea Counts/Dog/Day (Geometric Means) [1, 24]: 7.5
- % Efficacy [1, 25]: 85.4%
- Flea Counts/Dog/Day (Geometric Means) [1, 25]: 11.4
- % Efficacy [1, 26]: 48.0%
- Flea Counts/Dog/Day (Geometric Means) [1, 26]: 45.3
- % Efficacy [1, 27]: 39.5%
- Flea Counts/Dog/Day (Geometric Means) [1, 27]: 44.1

SMILES: O=[N+]([O-])/N=C1\NCCN1Cc1ccc(Cl)nc1 [imidacloprid]
- % Efficacy [2, 28]: 100.0%
- Flea comb count, G.M. [2, 28]: 0.0
- % Efficacy [2, 29]: 98.5%
- Flea comb count, G.M. [2, 29]: 1.0
- % Efficacy [2, 30]: 81.4%
- Flea comb count, G.M. [2, 30]: 10.0
- % Efficacy [2, 31]: 84.8%
- Flea comb count, G.M. [2, 31]: 10.0
- % Efficacy [2, 32]: 71.1%
- Flea comb count, G.M. [2, 32]: 16.7
- % Efficacy [2, 33]: 43.5%
- Flea comb count, G.M. [2, 33]: 33.3
- % Efficacy [2, 34]: 100.0%
- Flea comb count, G.M. [2, 34]: 0.0
- % Efficacy [2, 35]: 99.5%
- Flea comb count, G.M. [2, 35]: 0.3
- % Efficacy [2, 36]: 100.0%
- Flea comb count, G.M. [2, 36]: 0.0
- % Efficacy [2, 37]: 99.0%
- Flea comb count, G.M. [2, 37]: 0.7
- % Efficacy [2, 38]: 96.0%
- Flea comb count, G.M. [2, 38]: 2.3
- % Efficacy [2, 39]: 91.4%
- Flea comb count, G.M. [2, 39]: 5.1
- % Efficacy [1, 40]: 100.0%
- Flea Counts/Dog/Day (Geometric Means) [1, 40]: 0.0
- % Efficacy [1, 41]: 100.0%
- Flea Counts/Dog/Day (Geometric Means) [1, 41]: 0.0
- % Efficacy [1, 42]: 98.1%
- Flea Counts/Dog/Day (Geometric Means) [1, 42]: 1.5
- % Efficacy [1, 43]: 80.3%
- Flea Counts/Dog/Day (Geometric Means) [1, 43]: 15.4
- % Efficacy [1, 44]: 88.9%
- Flea Counts/Dog/Day (Geometric Means) [1, 44]: 9.7
- % Efficacy ([1]; 10 mg imidacloprid/kg (1×) spot-on, Day 100): 78.3%
- % Efficacy ([1]; 10 mg imidacloprid/kg (1×) spot-on, Day 114): 52.6%
- % Efficacy [1, 45]: 100.0%
- Flea Counts/Dog/Day (Geometric Means) [1, 45]: 0.0
- % Efficacy [1, 46]: 100.0%
- Flea Counts/Dog/Day (Geometric Means) [1, 46]: 0.0
- % Efficacy [1, 47]: 100.0%
- Flea Counts/Dog/Day (Geometric Means) [1, 47]: 0.0
- % Efficacy [1, 48]: 97.0%
- Flea Counts/Dog/Day (Geometric Means) [1, 48]: 2.4
- % Efficacy [1, 49]: 96.4%
- Flea Counts/Dog/Day (Geometric Means) [1, 49]: 3.1
- % Efficacy ([1]; 30 mg imidacloprid/kg (3×) spot-on, Day 100): 96.8%
- % Efficacy ([1]; 30 mg imidacloprid/kg (3×) spot-on, Day 114): 96.6%
- % Efficacy ([1]; 30 mg imidacloprid/kg (3×) spot-on, Day 128): 94.5%
